Results taken from patent US4684664A, “Derivatives of β-(4-isocyano-1,2,3,4-diepoxycyclopentyl) acrylic acid” (Kureha Kagaku Kogyo Kabushiki Kaisha, priority 1984, dated 1987).
Values after ≈ are worked out from the molar mass of the structure shown.

Key:
Type in all cases: cell-based
[1] = test system: Staphylococcus aureus FDA 209PJc-1; assay: Antibacterial activity, agar-dilution MIC, organism No. 1; conditions: Organism No. 1, bouillon-agar
Summary of the method: (§1)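 Minimum inhibitory concentration determined on solid bouillon agar by the agar-dilution technique, with values stated as μg/ml.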

[2] = test system: Staphylococcus aureus Terajima; assay: Antibacterial activity, agar-dilution MIC, organism No. 2; conditions: Organism No. 2, bouillon-agar
Summary of the method: as §1

[3] = test system: Staphylococcus aureus MS 353; assay: Antibacterial activity, agar-dilution MIC, organism No. 3; conditions: Organism No. 3, bouillon-agar
Summary of the method: as §1

[4] = test system: Streptococcus pyogenes Cook; assay: Antibacterial activity, agar-dilution MIC, organism No. 4; conditions: Organism No. 4, bouillon-agar
Summary of the method: as §1

[5] = test system: Escherichia coli NIHJ-JC-2; assay: Antibacterial activity, agar-dilution MIC, organism No. 5; conditions: Organism No. 5, bouillon-agar
Summary of the method: as §1

[6] = test system: Escherichia coli K12 C600 IAM 1264; assay: Antibacterial activity, agar-dilution MIC, organism No. 6; conditions: Organism No. 6, bouillon-agar
Summary of the method: as §1

[7] = test system: Klebsiella pneumoniae PCI-602; assay: Antibacterial activity, agar-dilution MIC, organism No. 7; conditions: Organism No. 7, bouillon-agar
Summary of the method: as §1

[8] = test system: Salmonella typhimurium IID 971; assay: Antibacterial activity, agar-dilution MIC, organism No. 8; conditions: Organism No. 8, bouillon-agar
Summary of the method: as §1

Salmonella typhi 901 = assay: Antibacterial activity, agar-dilution MIC, organism No. 9
Summary of the method: as §1

[9] = test system: Salmonella paratyphi-A 1015; assay: Antibacterial activity, agar-dilution MIC, organism No. 10
Summary of the method: as §1

[10] = test system: Salmonella shottmuelleri 8006; assay: Antibacterial activity, agar-dilution MIC, organism No. 11; conditions: Organism No. 11, bouillon-agar
Summary of the method: as §1

[11] = test system: Salmonella enteritidis G 14; assay: Antibacterial activity, agar-dilution MIC, organism No. 12; conditions: Organism No. 12, bouillon-agar
Summary of the method: as §1

[12] = test system: Serratia marcescens IAM 1184; assay: Antibacterial activity, agar-dilution MIC, organism No. 13; conditions: Organism No. 13, bouillon-agar
Summary of the method: as §1

[13] = test system: Bacillus subtilis ATCC 6633; assay: Antibacterial activity, agar-dilution MIC, organism No. 14; conditions: Organism No. 14, bouillon-agar
Summary of the method: as §1

[14] = test system: Pseudomonas aeruginosa IFO 3445; assay: Antibacterial activity, agar-dilution MIC, organism No. 15; conditions: Organism No. 15, bouillon-agar
Summary of the method: as §1

[15] = test system: Pseudomonas aeruginosa NCTC 10490; assay: Antibacterial activity, agar-dilution MIC, organism No. 16; conditions: Organism No. 16, bouillon-agar
Summary of the method: as §1

[16] = test system: Pseudomonas aeruginosa PAO 1; assay: Antibacterial activity, agar-dilution MIC, organism No. 17; conditions: Organism No. 17, bouillon-agar
Summary of the method: as §1

[17] = test system: Proteus morganii IFO 3848; assay: Antibacterial activity, agar-dilution MIC, organism No. 18; conditions: Organism No. 18, bouillon-agar
Summary of the method: as §1

[18] = test system: Proteus mirabilis IFO 3849; assay: Antibacterial activity, agar-dilution MIC, organism No. 19; conditions: Organism No. 19, bouillon-agar
Summary of the method: as §1

Proteus vulgaris OX-19 = assay: Antibacterial activity, agar-dilution MIC, organism No. 20; conditions: Organism No. 20, bouillon-agar
Summary of the method: as §1

Proteus vulgaris HX-19 = assay: Antibacterial activity, agar-dilution MIC, organism No. 21; conditions: Organism No. 21, bouillon-agar
Summary of the method: as §1

[19] = test system: Proteus rettgeri IFO 3850; assay: Antibacterial activity, agar-dilution MIC, organism No. 22; conditions: Organism No. 22, bouillon-agar
Summary of the method: as §1

[20] = test system: Enterobacter aerogenes ATCC 13048; assay: Antibacterial activity, agar-dilution MIC, organism No. 23; conditions: Organism No. 23, bouillon-agar
Summary of the method: as §1

Enterobacter cloacae 963 = assay: Antibacterial activity, agar-dilution MIC, organism No. 24; conditions: Organism No. 24, bouillon-agar
Summary of the method: as §1

[21] = test system: Micrococcus luteus ATCC 9341; assay: Antibacterial activity, agar-dilution MIC, organism No. 25; conditions: Organism No. 25, bouillon-agar
Summary of the method: as §1

[22] = test system: Streptococcus pyogenes IFO 3340; assay: Antibacterial activity, agar-dilution MIC, organism No. 26; conditions: Organism No. 26, bouillon-agar
Summary of the method: as §1

[23] = test system: Streptococcus faecium IFO 3826; assay: Antibacterial activity, agar-dilution MIC, organism No. 27; conditions: Organism No. 27, bouillon-agar
Summary of the method: as §1

[24] = test system: Mycoplasma pneumoniae IID817; assay: Antimycoplasmal activity, MIC by phenol red colour change, organism No. 28; conditions: Organism No. 28, PPLO broth + 1% glucose, 37° C.
Procedure: Mycoplasma pneumoniae IID817 was used as the test microorganism in a culture medium prepared by adding 1% of glucose to "PPLO broth (manufactured by Difco Co.) liquid culture medium" at 37° C. with phenol red as an indicator, thereby culturing the test microorganism.

[25] = test system: Candida albicans IAM 4905; assay: Antifungal activity, agar-dilution MIC, organism No. 29; conditions: Organism No. 29, bouillon-agar
Summary of the method: as §1

[26] = test system: Aspergillus niger IFO 6342; assay: Antifungal activity, agar-dilution MIC, organism No. 30; conditions: Organism No. 30, bouillon-agar
Summary of the method: as §1

For [C-]#[N+]C12CC3(/C=C/C(=O)N4CCOCC4)OC3C1O2 (stereo not drawn) [compound 22], the MIC ([1]; Staphylococcus aureus, FDA209PJC1, read-out: Minimum Inhibitory Concentration) was 50 µg/mL (≈ 191 µM), the MIC ([2]; Staphylococcus aureus, read-out: Minimum Inhibitory Concentration) was 100 µg/mL (≈ 381 µM) and the MIC ([3]; Staphylococcus aureus, MS353, read-out: Minimum Inhibitory Concentration) was 50 µg/mL (≈ 191 µM). The MIC ([4]; Streptococcus pyogenes, read-out: Minimum Inhibitory Concentration) was 50 µg/mL (≈ 191 µM), the MIC ([5]; Escherichia coli, NIHJJC2, read-out: Minimum Inhibitory Concentration) was 50 µg/mL (≈ 191 µM) and the MIC ([6]; Escherichia coli, IAM1264, read-out: Minimum Inhibitory Concentration) was 50 µg/mL (≈ 191 µM). For the same compound, the MIC ([7]; Klebsiella pneumoniae, PCI602, read-out: Minimum Inhibitory Concentration) was 50 µg/mL (≈ 191 µM), the MIC ([8]; Salmonella enterica, read-out: Minimum Inhibitory Concentration) was 25 µg/mL (≈ 95.3 µM) and the MIC (Salmonella typhi 901; Salmonella enterica, TYPHI, read-out: Minimum Inhibitory Concentration) was 6.25 µg/mL (≈ 23.8 µM). For the same compound, the MIC ([9]; Salmonella enterica, PARATYPHI, read-out: Minimum Inhibitory Concentration) was 25 µg/mL (≈ 95.3 µM), the MIC ([10]; Salmonella, 8006, read-out: Minimum Inhibitory Concentration) was 25 µg/mL (≈ 95.3 µM) and the MIC ([11]; Salmonella enterica, ENTERITIDIS, read-out: Minimum Inhibitory Concentration) was 12.5 µg/mL (≈ 47.7 µM). The MIC ([12]; Serratia marcescens, IAM1184, read-out: Minimum Inhibitory Concentration) was greater than 200 µg/mL, the MIC ([13]; Bacillus subtilis, ATCC6633, read-out: Minimum Inhibitory Concentration) was 200 µg/mL (≈ 763 µM) and the MIC ([14]; Pseudomonas aeruginosa, IFO3445, read-out: Minimum Inhibitory Concentration) was greater than 200 µg/mL. The MIC ([15]; Pseudomonas aeruginosa, NCTC10490, read-out: Minimum Inhibitory Concentration) was greater than 200 µg/mL, the MIC ([16]; Pseudomonas aeruginosa, PAO1, read-out: Minimum Inhibitory Concentration) was greater than 200 µg/mL and the MIC ([17]; Morganella morganii, IFO3848, read-out: Minimum Inhibitory Concentration) was 6.25 µg/mL (≈ 23.8 µM). It also gave an MIC ([18]; Proteus mirabilis, IFO3849, read-out: Minimum Inhibitory Concentration) greater than 200 µg/mL, an MIC (Proteus vulgaris OX-19; Proteus vulgaris, OX19, read-out: Minimum Inhibitory Concentration) of 12.5 µg/mL (≈ 47.7 µM) and an MIC (Proteus vulgaris HX-19; Proteus vulgaris, HX19, read-out: Minimum Inhibitory Concentration) of 1.56 µg/mL (≈ 5.95 µM). It also gave an MIC ([19]; Providencia rettgeri, IFO3850, read-out: Minimum Inhibitory Concentration) greater than 200 µg/mL, an MIC ([20]; Klebsiella aerogenes, ATCC13048, read-out: Minimum Inhibitory Concentration) greater than 200 µg/mL and an MIC (Enterobacter cloacae 963; Enterobacter cloacae, 963, read-out: Minimum Inhibitory Concentration) greater than 200 µg/mL. It also gave an MIC ([21]; Micrococcus luteus, ATCC9341, read-out: Minimum Inhibitory Concentration) of 0.39 µg/mL (≈ 1.49 µM), an MIC ([22]; Streptococcus pyogenes, IFO3340, read-out: Minimum Inhibitory Concentration) of 200 µg/mL (≈ 763 µM) and an MIC ([23]; Enterococcus faecium, IFO3826, read-out: Minimum Inhibitory Concentration) greater than 200 µg/mL. The MIC ([24]; Mycoplasma, IID817, read-out: Minimum Inhibitory Concentration (MIC)) was 1.56 µg/mL, the MIC ([25]; Candida albicans, IAM4905, read-out: Minimum Inhibitory Concentration) was 6.25 µg/mL (≈ 23.8 µM) and the MIC ([26]; Aspergillus niger, IFO6342, read-out: Minimum Inhibitory Concentration) was 3.13 µg/mL (≈ 11.9 µM).
For [C-]#[N+]C12CC3(/C=C/C(=O)Nc4ccc(SC)cc4)OC3C1O2 (stereo not drawn) [compound 76], the “Minimum Inhibitory Concentration” value [1] was 0.39 µg/mL, the “Minimum Inhibitory Concentration” value [2] was 1.56 µg/mL and the “Minimum Inhibitory Concentration” value [3] was 0.78 µg/mL. For the same compound, the “Minimum Inhibitory Concentration” value [4] was 100 µg/mL, the “Minimum Inhibitory Concentration” value [5] was greater than 200 µg/mL and the “Minimum Inhibitory Concentration” value [6] was greater than 200 µg/mL. For the same compound, the “Minimum Inhibitory Concentration” value [7] was 0.78 µg/mL, the “Minimum Inhibitory Concentration” value [8] was greater than 200 µg/mL and the “Minimum Inhibitory Concentration” value (Salmonella typhi 901; Organism No. 9, bouillon-agar) was 25 µg/mL. For the same compound, the “Minimum Inhibitory Concentration” value ([9]; Organism No. 10, bouillon-agar) was 0.78 µg/mL, the “Minimum Inhibitory Concentration” value [10] was 1.56 µg/mL and the “Minimum Inhibitory Concentration” value [11] was greater than 200 µg/mL. For the same compound, the “Minimum Inhibitory Concentration” value [12] was greater than 200 µg/mL, the “Minimum Inhibitory Concentration” value [13] was 12.5 µg/mL and the “Minimum Inhibitory Concentration” value [14] was greater than 200 µg/mL. The “Minimum Inhibitory Concentration” value [15] was greater than 200 µg/mL, the “Minimum Inhibitory Concentration” value [16] was greater than 200 µg/mL and the “Minimum Inhibitory Concentration” value [17] was 3.13 µg/mL. For the same compound, the “Minimum Inhibitory Concentration” value [18] was greater than 200 µg/mL, the “Minimum Inhibitory Concentration” value (Proteus vulgaris OX-19) was 1.56 µg/mL and the “Minimum Inhibitory Concentration” value (Proteus vulgaris HX-19) was 0.78 µg/mL. The “Minimum Inhibitory Concentration” value [19] was 100 µg/mL, the “Minimum Inhibitory Concentration” value [20] was greater than 200 µg/mL and the “Minimum Inhibitory Concentration” value (Enterobacter cloacae 963) was 200 µg/mL. For the same compound, the “Minimum Inhibitory Concentration” value [21] was 50 µg/mL, the “Minimum Inhibitory Concentration” value [22] was 1.56 µg/mL and the “Minimum Inhibitory Concentration” value [23] was 1.56 µg/mL. The “Minimum Inhibitory Concentration (MIC)” value [24] was less than 0.2, the “Minimum Inhibitory Concentration” value [25] was 25 µg/mL and the “Minimum Inhibitory Concentration” value [26] was 100 µg/mL.
